Ki data for five molecules are collected here from patent US8440639B2, “Combination compositions for reducing intraocular pressure” (Inotek Pharmaceuticals Corporation, priority 2010, dated 2013).

This experiment has as its target T1, A1 receptor (Homo sapiens, UniProt P30542).
T1 sequence (P30542 1-326): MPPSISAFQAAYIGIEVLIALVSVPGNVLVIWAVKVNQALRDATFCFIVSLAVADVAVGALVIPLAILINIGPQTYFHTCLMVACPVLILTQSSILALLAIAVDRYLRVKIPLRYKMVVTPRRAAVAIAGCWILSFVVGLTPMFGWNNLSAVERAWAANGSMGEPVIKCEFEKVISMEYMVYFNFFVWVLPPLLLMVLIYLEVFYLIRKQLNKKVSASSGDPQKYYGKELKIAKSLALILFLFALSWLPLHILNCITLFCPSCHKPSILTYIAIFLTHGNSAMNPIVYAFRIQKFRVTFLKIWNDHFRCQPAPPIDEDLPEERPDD
The experiment can be described thus: Adenosine A1 receptor affinity (Ki potency). The class given is binding. The source says: As used herein, the term “A1 agonist” refers to an A1 agonist that has an affinity to the A1 receptor while simultaneously having a lower affinity for the A2 and A3 adenosine receptors.

Counter-ions that a name gives are not always drawn.

For orientation: Ki means a dissociation constant, usually derived from enzyme kinetics or from competition with a known ligand. High values mean lower affinity, low ones higher affinity. `O=[N+]([O-])OC[C@H]1O[C@@H](n2cnc3c(NC4CCOC4)ncnc32)[C@H](O)[C@@H]1O` (stereo partly drawn) [Compound D, ((2R,3S,4R,5R)-3,4-dihydroxy-5-(6-(tetrahydrofuran-3-ylamino)-9H-purin-9-yl)tetrahydrofuran-2-yl)methyl nitrate]: the affinity corresponds to a Ki of 10.6 nM. The figure for `O=[N+]([O-])OC[C@H]1O[C@@H](n2cnc3c(NC4CCCCC4)ncnc32)[C@H](O)[C@@H]1O` [Compound E, ((2R,3S,4R,5R)-5-(6-(cyclohexylamino)-9H-purin-9-yl)-3,4-dihydroxytetrahydrofuran-2-yl)methyl nitrate] is 1.32 nM; for `O=S(=O)(O)OC[C@H]1O[C@@H](n2cnc3c(NC4CCCCC4)nc(Cl)nc32)[C@H](O)[C@@H]1O` [Compound G, sodium((2R,3S,4R,5R)-5-(2-chloro-6-(cyclohexylamino)-9H-purin-9-yl)-3,4-dihydroxytetrahydrofuran-2-yl)methyl sulfate] it is 1.36 nM; for `O=[N+]([O-])OC[C@H]1O[C@@H](n2cnc3c(NC4CC5CCC4C5)ncnc32)[C@H](O)[C@@H]1O` (stereo partly drawn) [Compound F, ((2R,3S,4R,5R)-5-(6-(bicycle-[2.2.1]-heptan-2-ylamino)-9H-purin-9-yl)-3,4-dihydroxytetrahydrofuran-2-yl)methyl nitrate] it is 1.47 nM. In the case of `O=S(=O)(O)OC[C@H]1O[C@@H](n2cnc3c(NC4CCCC4)ncnc32)[C@H](O)[C@@H]1O` [Compound C, sodium((2R,3S,4R,5R)-5-(6-(cyclopentylamino)-9H-purin-9-yl)-3,4-dihydroxytetrahydrofuran-2-yl)methyl sulfate] it was 4.05 nM.
